Experimental data from patent US20220305012A1, “L[…] TREATING SLEEP ISSUES” (EISAI R&D MANAGEMENT CO., LTD., priority 2019, published 2022).

Experiments:
[1] = system: Subjects Having Insomnia Disorder; experiment: Example 1: subjective sleep efficiency (sSE), Sleep Diary; type: in vivo, human
Excerpt: As used herein, the term “subjective sleep efficiency”, abbreviated as “sSE”, means the proportion of sTST per subjective time spent in bed, calculated as the interval from the time the subject reports attempting to sleep until the time the subject stopped trying to sleep for the night (operationalized as the time the subject got out of bed for the day), and time spent asleep derived from subjective time spent in bed minus sWASO. As used herein, an “improvement of sleep efficiency in Subjective Sleep Efficiency (sSE)” means an increase in sleep efficiency in Subjective Sleep Efficiency (sSE).
(§1) In some embodiments, sleep diaries were used to assess sleep parameters reported by subjects (i.e., subjective assessments) including subjective sleep onset latency (sSOL), subjective sleep efficiency (sSE), subjective WASO (sWASO), and subjective total sleep time (sTST). Subjects were instructed to complete the Sleep Diary developed based on the consensus Sleep Diary as described in Carney et al., “The consensus sleep diary: standardizing prospective sleep self-monitoring,” Sleep 2012; 35(2):287-302. In some embodiments, the Sleep Diary was used to assess the subject's global perception of quality of sleep on the previous night with the following question: “How would you rate the quality of your sleep last night?” Subjects rated the quality of their sleep on a scale from 1 to 9, with 1 being extremely poor and 9 being extremely good. In some embodiments, the Sleep Diary was used to assess subjective ratings of morning sleepiness with the following question: “How alert/sleepy do you feel this morning?” Subjects rated their sleepiness/alertness level on a Likert scale from 1 to 9, with 1 being extremely sleepy and 9 being extremely alert.
sSE—subjective sleep efficiency: proportion of sTST per subjective time spent in bed, calculated as the interval from the time the subject reports attempting to sleep until the time the subject stopped trying to sleep for the night (operationalized as the time the subject got out of bed for the day), and time spent asleep derived from subjective time in bed minus sWASO.
(§2) Subjects were randomized in a double-blind manner and received either placebo, 5 mg of lemborexant, or 10 mg of lemborexant (approximately 1:1:1 randomization). All subjects underwent routine safety monitoring through the study, including assessments of treatment-emergent adverse events, 12-lead electrocardiograms, vital signs, weight, and clinical hematology and blood chemistry labs. Suicidality was assessed using the eC-SSRS.
(§3) Treatment period 1 began with the first dose of randomized study medication (placebo, 5 mg of lemborexant, or 10 mg of lemborexant). Subjects completed sleep diaries daily in the morning, within one hour of waketime. The subjects were assessed by a clinician one month, two months, three months, and six months after initiation of Treatment period 1. The following assessments were conducted:
(§4) This study had two key secondary endpoints. The first key secondary endpoint was the mean change from study baseline in subjective sleep efficiency at month 6. The second key secondary endpoint was the mean change from study baseline of subjective wake after sleep onset at month 6.

[2] = system: Subjects Having Insomnia Disorder; experiment: Example 1: subjective wake after sleep onset (sWASO), Sleep Diary; type: in vivo, human
Excerpt: As used herein, the term “subjective wake after sleep onset”, abbreviated as “sWASO”, means the sum of estimated minutes of wake during the night after initial sleep onset until the time the subject stopped trying to sleep for the night, operationalized as the time the subject got out of bed for the day. In some embodiments, sWASO is derived from data entered in a subject's Sleep Diary. As used herein, an “improvement of sWASO” means a reduction in sWASO.
as §1
sWASO—subjective wake after sleep onset: sum of estimated minutes of wake during the night after initial sleep onset until the time the subject stopped trying to sleep for the night, operationalized as the time the subject got out of bed for the day.
as §2, §3, §4

[3] = 5 mg, change from Study Baseline after 1 Month
[4] = 5 mg, change from Study Baseline after 3 Months
[5] = 5 mg, change from Study Baseline after 6 Months
[6] = 5 mg, change from Study Baseline after 7 Nights
[7] = 10 mg, change from Study Baseline after 1 Month
[8] = 10 mg, change from Study Baseline after 3 Months
[9] = 10 mg, change from Study Baseline after 6 Months
[10] = 10 mg, change from Study Baseline after 7 Nights

For `Cc1ncc(OC[C@@]2(c3cccc(F)c3)C[C@H]2C(=O)Nc2ccc(F)cn2)c(C)n1` [Lemborexant, (1R,2S)-2-(((2,4-dimethylpyrimidin-5-yl)oxy)methyl)-2-(3-fluorophenyl)-N-(5-fluoropyridin-2-yl)cyclopropanecarboxamide], the “subjective sleep efficiency compared with placebo” value ([1]; 5 mg and 10 mg, at the equivalent timepoint (Table 3)) was “greater increase in subjective sleep efficiency than subjects treated with placebo”, the “sSE, Mean” value ([1]; 5 mg, First 7 Nights) was 69.97% and the “sSE, Median” value ([1]; 5 mg, First 7 Nights) was 74.62%. For the same compound, the “sSE, Mean” value ([1]; 5 mg, Month 1) was 71.56%, the “sSE, Median” value ([1]; 5 mg, Month 1) was 76.35% and the “sSE, Mean” value ([1]; 5 mg, Month 3) was 77.29%. The “sSE, Median” value ([1]; 5 mg, Month 3) was 81.32%, the “sSE, Mean” value ([1]; 5 mg, Month 6) was 78.55% and the “sSE, Median” value ([1]; 5 mg, Month 6) was 82.02%. The “sSE, Mean” value ([1]; 5 mg, Study Baseline) was 63.14%, the “sSE, Median” value ([1]; 5 mg, Study Baseline) was 67.00% and the “sSE Change from Study Baseline, Mean” value ([1]; 5 mg, after 1 Month) was 7.87%. For the same compound, the “sSE Change from Study Baseline, Median” value ([1]; 5 mg, after 1 Month) was 6.75%, the “sSE Change from Study Baseline, Mean” value ([1]; 5 mg, after 3 Months) was 13.03% and the “sSE Change from Study Baseline, Median” value ([1]; 5 mg, after 3 Months) was 11.63%. For the same compound, the “sSE Change from Study Baseline, Mean” value ([1]; 5 mg, after 6 Months) was 15.34%, the “sSE Change from Study Baseline, Median” value ([1]; 5 mg, after 6 Months) was 13.33% and the “sSE Change from Study Baseline, Mean” value ([1]; 5 mg, after 7 Nights) was 6.61%. The “sSE Change from Study Baseline, Median” value ([1]; 5 mg, after 7 Nights) was 5.45%, the “sSE LSM treatment difference: Lemborexant-Placebo” value (“sSE LSM treatment difference” for short) [1, 3] was 2.227% and the “sSE LSM treatment difference” value [1, 4] was 4.222%. The “sSE LSM treatment difference” value [1, 5] was 4.549%, the “sSE LSM treatment difference” value [1, 6] was 4.299% and the “sSE, Mean” value ([1]; 10 mg, First 7 Nights) was 69.96%. For the same compound, the “sSE, Median” value ([1]; 10 mg, First 7 Nights) was 71.85%, the “sSE, Mean” value ([1]; 10 mg, Month 1) was 71.04% and the “sSE, Median” value ([1]; 10 mg, Month 1) was 74.70%. The “sSE, Mean” value ([1]; 10 mg, Month 3) was 75.15%, the “sSE, Median” value ([1]; 10 mg, Month 3) was 78.30% and the “sSE, Mean” value ([1]; 10 mg, Month 6) was 76.53%. The “sSE, Median” value ([1]; 10 mg, Month 6) was 80.22%, the “sSE, Mean” value ([1]; 10 mg, Study Baseline) was 62.03% and the “sSE, Median” value ([1]; 10 mg, Study Baseline) was 65.05%. For the same compound, the “sSE Change from Study Baseline, Mean” value ([1]; 10 mg, after 1 Month) was 9.92%, the “sSE Change from Study Baseline, Median” value ([1]; 10 mg, after 1 Month) was 9.00% and the “sSE Change from Study Baseline, Mean” value ([1]; 10 mg, after 3 Months) was 13.61%. For the same compound, the “sSE Change from Study Baseline, Median” value ([1]; 10 mg, after 3 Months) was 12.62%, the “sSE Change from Study Baseline, Mean” value ([1]; 10 mg, after 6 Months) was 15.55% and the “sSE Change from Study Baseline, Median” value ([1]; 10 mg, after 6 Months) was 13.91%. For the same compound, the “sSE Change from Study Baseline, Mean” value ([1]; 10 mg, after 7 Nights) was 8.27%, the “sSE Change from Study Baseline, Median” value ([1]; 10 mg, after 7 Nights) was 7.17% and the “sSE LSM treatment difference” value [1, 7] was 3.615%. For the same compound, the “sSE LSM treatment difference” value [1, 8] was 4.361%, the “sSE LSM treatment difference” value [1, 9] was 4.667% and the “sSE LSM treatment difference” value [1, 10] was 5.793%. The “subjective wake after sleep onset compared with placebo” value ([2]; 5 mg and 10 mg, at the equivalent timepoint (Table 4)) was “greater reduction in mean subjective wake after sleep onset than subjects treated with placebo”, the “sWASO, Mean” value ([2]; 5 mg, First 7 Nights) was 113.53 min and the “sWASO, Median” value ([2]; 5 mg, First 7 Nights) was 87.86 min. For the same compound, the “sWASO, Mean” value ([2]; 5 mg, Month 1) was 107.07 min, the “sWASO, Median” value ([2]; 5 mg, Month 1) was 85.29 min and the “sWASO, Mean” value ([2]; 5 mg, Month 3) was 89.48 min. For the same compound, the “sWASO, Median” value ([2]; 5 mg, Month 3) was 66.43 min, the “sWASO, Mean” value ([2]; 5 mg, Month 6) was 81.79 min and the “sWASO, Median” value ([2]; 5 mg, Month 6) was 60.00 min. The “sWASO, Mean” value ([2]; 5 mg, Study Baseline) was 132.77 min, the “sWASO, Median” value ([2]; 5 mg, Study Baseline) was 114.71 min and the “sWASO Change from Study Baseline, Mean” value ([2]; 5 mg, after 1 Month) was -23.42 min. The “sWASO Change from Study Baseline, Median” value ([2]; 5 mg, after 1 Month) was -19.29 min, the “sWASO Change from Study Baseline, Mean” value ([2]; 5 mg, after 3 Months) was -42.98 min and the “sWASO Change from Study Baseline, Median” value ([2]; 5 mg, after 3 Months) was -34.57 min. The “sWASO Change from Study Baseline, Mean” value ([2]; 5 mg, after 6 Months) was -51.45 min, the “sWASO Change from Study Baseline, Median” value ([2]; 5 mg, after 6 Months) was -44.02 min and the “sWASO Change from Study Baseline, Mean” value ([2]; 5 mg, after 7 Nights) was -20.21 min. The “sWASO Change from Study Baseline, Median” value ([2]; 5 mg, after 7 Nights) was -16.01 min, the “sWASO LSM treatment difference: Lemborexant/Placebo” value [2, 3] was -5.514 min and the “sWASO LSM treatment difference: Lemborexant/Placebo” value [2, 4] was -13.424 min. For the same compound, the “sWASO LSM treatment difference: Lemborexant/Placebo” value [2, 5] was -17.474 min, the “sWASO LSM treatment difference: Lemborexant/Placebo” value [2, 6] was -14.328 min and the “sWASO, Mean” value ([2]; 10 mg, First 7 Nights) was 113.77 min. The “sWASO, Median” value ([2]; 10 mg, First 7 Nights) was 92.29 min, the “sWASO, Mean” value ([2]; 10 mg, Month 1) was 109.42 min and the “sWASO, Median” value ([2]; 10 mg, Month 1) was 95.00 min. The “sWASO, Mean” value ([2]; 10 mg, Month 3) was 95.66 min, the “sWASO, Median” value ([2]; 10 mg, Month 3) was 70.00 min and the “sWASO, Mean” value ([2]; 10 mg, Month 6) was 86.38 min. For the same compound, the “sWASO, Median” value ([2]; 10 mg, Month 6) was 62.14 min, the “sWASO, Mean” value ([2]; 10 mg, Study Baseline) was 136.83 min and the “sWASO, Median” value ([2]; 10 mg, Study Baseline) was 120.57 min. For the same compound, the “sWASO Change from Study Baseline, Mean” value ([2]; 10 mg, after 1 Month) was -26.82 min, the “sWASO Change from Study Baseline, Median” value ([2]; 10 mg, after 1 Month) was -22.29 min and the “sWASO Change from Study Baseline, Mean” value ([2]; 10 mg, after 3 Months) was -39.42 min. The “sWASO Change from Study Baseline, Median” value ([2]; 10 mg, after 3 Months) was -36.07 min, the “sWASO Change from Study Baseline, Mean” value ([2]; 10 mg, after 6 Months) was -48.12 min and the “sWASO Change from Study Baseline, Median” value ([2]; 10 mg, after 6 Months) was -47.43 min. The “sWASO Change from Study Baseline, Mean” value ([2]; 10 mg, after 7 Nights) was -23.30 min, the “sWASO Change from Study Baseline, Median” value ([2]; 10 mg, after 7 Nights) was -20.71 min and the “sWASO LSM treatment difference: Lemborexant/Placebo” value [2, 7] was -7.005 min. The “sWASO LSM treatment difference: Lemborexant/Placebo” value [2, 8] was -10.079 min, the “sWASO LSM treatment difference: Lemborexant/Placebo” value [2, 9] was -12.671 min and the “sWASO LSM treatment difference: Lemborexant/Placebo” value [2, 10] was -16.720 min.
